Laboratory results from patent US10238670B2, “9-aminomethyl minocycline compounds and methods of use thereof in urinary tract infection (UTI) treatment” (Paratek Pharmaceuticals, Inc., priority 2016, dated 2019).
Read-outs that look alike come from different tables or passages of the source.

Test: Phase 1b study in female adults with cystitis, plasma PK
Type: in vivo, human
Conditions: plasma, plasma; for half-life / AUC(0-t) / Cmax / concentration at 5 day / Tmax: female, human
Experimental: According to the study design, a randomized (1:1:1), open-label, parallel designed Phase 1b study comparing 3 dosing regimens of Compound 1 (9-[(2,2-dimethyl-propyl amino)-methyl-minocycline) in the treatment of female adults with cystitis was conducted. About 31 female patients with uncomplicated urinary tract infection (cystitis) who met inclusion and exclusion criteria were enrolled at 2-4 U.S. treatment centers. All enrolled subjects participated in the study for approximately 5-6 weeks. Following Screening of up to 48 hrs, eligible subjects were randomly assigned to receive one of 3 dosing regimens of Compound 1 treatment as shown below. Subjects in all treatment groups were domiciled for a 5-day treatment period. Details of the study are further described below.
Subjects were randomized (1:1:1) to one of the following treatment arms: • 1. Group 1: IV load, p.o. daily (200 mg Compound 1 IV every 24 hours (q24h) for 1 dose, followed by 300 mg p.o. q24h for a total of 5 days); • 2. Group 2: p.o. load, p.o. daily (300 mg Compound 1 p.o. every 12 hours (q12h) for 2 doses, followed by 300 mg p.o. q24h for a total of 5 days); • 3. Group 3: high p.o. load, high p.o. daily (450 mg Compound 1 p.o. q12h for 2 doses, followed by 450 mg p.o. q24h for a total of 5 days).
Blood samples were collected and analyzed for Compound 1 concentration at the following times. Pre-dose blood PK evaluations were based on blood samples collected within 10 min of each start (e.g., t=0 h dose for Day 1, t=24 h dose for Day 2, etc.). • Day 1: Pre-dose, and 0.75, 1, 2, 3, 4, 6, 8 and 12 hours after the t=0 h dose (12 h sample before the t=12 h dose for Groups 2 and 3); • Day 2: prior to the t=24 h dose; • Day 3: prior to the t=48 h dose; • Day 4: prior to the t=72 h dose; • Day 5: Pre-dose, and 0.5, 1, 2, 3, 4, 6, 8 and 12 hours after the t=96 h dose • Day 6: at t=120 h (24 hours after the t=96 h dose on Day 5)
Following the final oral doses on Day 5 the Compound 1 plasma concentration-time data for Groups 1, 2 and 3 were used to determine Cmax, Tmax, AUC24h, AUCt. Trough plasma concentrations (Ctrough) following each dose (Days 2 to 6) were also determined.
Blood samples for PK are collected at the time points specified below. • Day 1: Predose, and 0.75, 1, 2, 3, 4, 6, 8 and 12 hours after the t=0 h dose (12 h sample before the t=12 h dose for Groups 2 and 3); • Day 2: prior to the t=24 h dose; • Day 3: prior to the t=48 h dose; • Day 4: prior to the t=72 h dose; • Day 5: Predose, and 0.5, 1, 2, 3, 4, 6, 8 and 12 hours after the t=96 h dose • Day 6: at t=120 h (24 hours after the t=96 h dose on Day 5)
Blood was collected either by fresh venipuncture or via a cannula used solely for that purpose. The dates and times for all doses of test article and PK sample collections were recorded. For intravenously administered doses of test article, the start and stop times for each infusion were recorded. Immediately after the sample was collected, the tube was gently inverted 5 to 8 times to thoroughly mix the anticoagulant and then placed upright in a cryoblock or test tube rack surrounded by ice until centrifugation. Samples were centrifuged at 1500×g for 10 minutes at approximately 4° C. within 30 minutes of collection. The resultant plasma was divided into 2 equal aliquots, placed in individual cryovials, and immediately frozen at −20° C. or colder within 1 hour of collection. The samples were kept frozen at −20° C. or colder pending shipment to the bioanalytical laboratory.
The Compound 1 plasma concentration data was listed and summarized by time point and treatment group. The following PK parameters were estimated from the Compound 1 plasma concentration-time data: […]

## CN(C)c1cc(CNCC(C)(C)C)c(O)c2c1C[C@H]1C[C@H]3[C@H](N(C)C)C(O)=C(C(N)=O)C(=O)[C@@]3(O)C(O)=C1C2=O [Compound 1, 9-[(2,2-dimethyl-propylamino)-methyl]-minocycline]
oral, 300 mg, Day 5, IV_PO300, read-out: T½, Mean (converted)
  half-life: 13.8 h
oral, 300 mg, Day 5, IV_PO300, read-out: T½, Median (converted)
  half-life: 12.1 h
oral, 300 mg, Day 5, PO300, read-out: AUC(0-24 hrs), Geo. Mean
  AUC(0-t): 12400 ng·h/mL
oral, 300 mg, Day 5, PO300, read-out: AUC(0-24 hrs), Mean
  AUC(0-t): 13500 ng·h/mL
oral, 300 mg, Day 5, PO300, read-out: AUC(0-24 hrs), Median
  AUC(0-t): 13400 ng·h/mL
oral, 300 mg, Day 5, PO300, read-out: Cmax, Geo. Mean
  Cmax: 999 ng/mL
oral, 300 mg, Day 5, PO300, read-out: Cmax, Mean
  Cmax: 1120 ng/mL
oral, 300 mg, Day 5, PO300, read-out: Cmax, Median
  Cmax: 1070 ng/mL
oral, 300 mg, Day 5, PO300, read-out: Ctrough, Geo. Mean
  concentration at 5 day: 293 ng/mL
oral, 300 mg, Day 5, PO300, read-out: Ctrough, Mean
  concentration at 5 day: 319 ng/mL
oral, 300 mg, Day 5, PO300, read-out: Ctrough, Median
  concentration at 5 day: 315 ng/mL
oral, 300 mg, Day 5, PO300, read-out: Tmax, Geo. Mean
  Tmax: 3.61 h
oral, 300 mg, Day 5, PO300, read-out: Tmax, Mean
  Tmax: 3.9 h
oral, 300 mg, Day 5, PO300, read-out: Tmax, Median
  Tmax: 3 h
oral, 450 mg, Day 1, PO450, read-out: AUC(0-12 hrs), Geo. Mean
  AUC(0-t): 6690 ng·h/mL
oral, 450 mg, Day 1, PO450, read-out: AUC(0-12 hrs), Mean
  AUC(0-t): 6850 ng·h/mL
oral, 450 mg, Day 1, PO450, read-out: AUC(0-12 hrs), Median
  AUC(0-t): 6650 ng·h/mL
oral, 450 mg, Day 1, PO450, read-out: Cmax, Geo. Mean
  Cmax: 948 ng/mL
oral, 450 mg, Day 1, PO450, read-out: Cmax, Mean
  Cmax: 987 ng/mL
oral, 450 mg, Day 1, PO450, read-out: Cmax, Median
  Cmax: 947 ng/mL
oral, 450 mg, Day 1, PO450, read-out: Tmax, Geo. Mean
  Tmax: 2.21 h
oral, 450 mg, Day 1, PO450, read-out: Tmax, Median
  Tmax: 3 h
oral, 450 mg, Day 5, PO450, read-out: AUC(0-24 hrs), Geo. Mean
  AUC(0-t): 18700 ng·h/mL
oral, 450 mg, Day 5, PO450, read-out: AUC(0-24 hrs), Mean
  AUC(0-t): 19800 ng·h/mL
oral, 450 mg, Day 5, PO450, read-out: AUC(0-24 hrs), Median
  AUC(0-t): 21600 ng·h/mL
oral, 450 mg, Day 5, PO450, read-out: Cmax, Geo. Mean
  Cmax: 1360 ng/mL
oral, 450 mg, Day 5, PO450, read-out: Cmax, Mean
  Cmax: 1490 ng/mL
oral, 450 mg, Day 5, PO450, read-out: Cmax, Median
  Cmax: 1640 ng/mL
oral, 450 mg, Day 5, PO450, read-out: Ctrough, Geo. Mean
  concentration at 5 day: 462 ng/mL
oral, 450 mg, Day 5, PO450, read-out: Ctrough, Mean
  concentration at 5 day: 484 ng/mL
oral, 450 mg, Day 5, PO450, read-out: Ctrough, Median
  concentration at 5 day: 503 ng/mL
oral, 450 mg, Day 5, PO450, read-out: Tmax, Geo. Mean
  Tmax: 2.64 h
oral, 450 mg, Day 5, PO450, read-out: Tmax, Mean
  Tmax: 3.36 h
oral, 450 mg, Day 5, PO450, read-out: Tmax, Median
  Tmax: 3.02 h
po, 300 mg, Day 1, 300 mg po (n = 10), median, read-out: tmax
  Tmax: 3 h
po, 300 mg, Day 5, 300 mg po (n = 10), mean, read-out: Cmax
  Cmax: 1120 ng/mL
po, 300 mg, Day 5, 300 mg po (n = 10), median, read-out: tmax
  Tmax: 3 h
po, 450 mg, Day 1, 450 mg po (n = 10), mean, read-out: AUC0-12
  AUC(0-t): 6850 ng·h/mL
po, 450 mg, Day 1, 450 mg po (n = 10), median, read-out: tmax
  Tmax: 3 h
po, 450 mg, Day 1, 450 mg po (n = 10), mean, read-out: Cmax
  Cmax: 990 ng/mL
po, 450 mg, Day 5, 450 mg po (n = 10), mean, read-out: AUC0-24
  AUC(0-t): 19800 ng·h/mL
po, 450 mg, Day 5, 450 mg po (n = 10), mean, read-out: Cmax
  Cmax: 1490 ng/mL
po, 450 mg, Day 5, 450 mg po (n = 10), median, read-out: tmax
  Tmax: 3 h
Day 1, IV_PO300
  Lambda Z, Geo. Mean: 0.0614 h⁻¹
  Lambda Z, Mean: 0.0620 h⁻¹
  Lambda Z, Median: 0.0605 h⁻¹
Day 1, PO450
  Tmax, Mean: 2.492 h
Day 5, IV_PO300
  Lambda Z, Geo. Mean: 0.0526 h⁻¹
  Lambda Z, Mean: 0.0545 h⁻¹
  Lambda Z, Median: 0.0574 h⁻¹
